In patent US9944589B2, “Cycloproplyamine derivatives useful as inhibitors of histone demethylases KDM1A” (Istituto Europeo de Oncologia S.r.L., priority 2012, dated 2018):
“And” between values parts separate entries of the source, which are not always exact repeats. Equal entries are not always repeated. Structures can show the parent of a compound that is named as a salt.

Assays:
[1] = system: Acute promyelocytic leukemia NB4 cells; assay: Cell growth (CellTiter-Fluor cell viability assay); assay type: cell-based; conditions: Homo sapiens, NB-4, 48 h; for IC50: range classes, read-out: IC50 [μM], cell growth inhibitory assay
From the text: CellTiter-Flor® (Promega) is as a nonlytic, single-reagent-addition fluorescence assay that measures the relative number of living cells in a culture population after experimental manipulation. The CellTiter-Fluor™ Cell Viability Assay measures the conserved and constitutive protease activity within live cells and therefore acts as a marker for cell viability.
Acute promyelocytic leukemia NB4 cells, (obtained from the Deutsche Sammlung von Mikroorganismen and Zellkulturen) in exponential growth, were incubated for 48 h with different concentrations of the inhibitors. After 48 h a volume of CellTiter-Fluor® Reagent equal to one fifth of volume of cell culture medium was added. The content was mixed and incubates for at least 90 min at 37° C. degree to obtain a stable signal. The fluorescence was recorded using an excitation wavelength of 360 nm and an emission at 535 nm. The IC50 was calculated using GraphPad Software.

[2] = target: T1, human recombinant KDM1A (LSD1)/CoRest (Homo sapiens, UniProt O60341); assay: Assay of enzyme inhibition of KDM1A (LSD1), Amplex UltraRed/peroxidase coupled; assay type: biochemical; conditions: 15 min preincubation, 4.5 μM mono-methylated H3-K4 peptide, range classes, read-out: IC50 [μM], KDM1A inhibition assay
T1 construct: made in house; host or cells: E. coli
Protocol: The experiments were performed using a mono-methylated H3-K4 peptide containing 21 amino acids (custom synthesis done by Thermo Scientific) as substrate and in a 50 mM TRIS, pH 8, 0.05 mg/ml BSA buffer.
The demethylase activity was estimated under aerobic conditions and at RT by measuring the release of H2O2 produced during the catalytic process by the Amplex® UltraRed detection system coupled with peroxidase assay. Briefly, a fixed amount of KDM1A/CoRest complex was incubated at RT for 15 minutes in the absence and/or the presence of various concentrations of inhibitor (e.g. from 0 to 100 μM, depending on the inhibitor strength) and of Amplex® UltraRed detection system coupled with peroxidase assay. The inhibitors were tested twice in duplicates at each concentration. […] The conversion of the Amplex® Ultra Red reagent to resorufin was monitored in continuous by fluorescence (excitation at 540 nm, emission at 590 nm) using a microplate reader (Infinite 200, Tecan). Arbitrary units were used to measure the level of H2O2 produced in the absence and/or in the presence of inhibition. The maximum demethylase activity of KDM1A/CoRest was obtained in the absence of inhibitors and corrected for background fluorescence in the absence of KDM1A/CoRest. The IC50 was calculated using GraphPad Software.

| Structure (SMILES) | IC50 [1] | IC50 [2] | inhibition at 100 µM ([1]; 100 μM, read-out: inhibition at 100 μM, cell growth inhibitory assay) |
| --- | --- | --- | --- |
| N[C@@H]1C[C@H]1c1ccccc1 (racemic) [tranylcypromine, reference compound] |  |  | 10% |
| N[C@]1(Cc2ccccc2)C[C@H]1c1ccccc1 (relative stereo) [Example A-8, trans-1-benzyl-2-phenyl-cyclopropanamine hydrochloride] | 50 to 100 µM |  |  |
| N[C@]1(CCc2ccccc2)C[C@H]1c1ccccc1 (relative stereo) [Example A-11, trans-1-phenethyl-2-phenyl-cyclopropanamine hydrochloride] | 10 to 50 µM |  |  |
| CC[C@@]1(N)C[C@H]1c1ccc(Br)cc1 (relative stereo) [Example A-12, trans-2-(4-bromophenyl)-1-ethyl-cyclopropanamine hydrochloride] | 10 to 50 µM | 0.1 to 1 µM |  |
| N[C@]1(Cc2ccc3ccccc3c2)C[C@H]1c1ccccc1 (relative stereo) [Example A-15, trans-1-(2-naphthylmethyl)-2-phenyl-cyclopropanamine hydrochloride] | ≤ 10 µM |  |  |
| CC[C@@]1(N)C[C@H]1c1ccc(OC(F)(F)F)cc1 (relative stereo) [Example A-24, 1-ethyl-(trans)-2-[4-(trifluoromethoxy)phenyl] cyclopropanamine hydrochloride] | 50 to 100 µM | 1 to 5 µM |  |
| CC[C@@]1(N)C[C@H]1c1ccc(OCc2ccccc2)cc1 (relative stereo) [Example A-41, 2-(4-benzyloxyphenyl)- trans-1-ethyl-cyclopropanamine hydrochloride] | 10 to 50 µM | 0.1 to 1 µM |  |
| N[C@]1(Cc2ccc3ccccc3c2)C[C@H]1c1ccc(NC(=O)c2cccc(NC(=O)OCc3ccccc3)c2)cc1 (relative stereo) [Example A-45, benzyl N-[3-[[4-[(trans)-2-amino-2-(2-naphthylmethyl)cyclopropyl]phenyl]carbamoyl]phenyl] carbamate hydrochloride] | ≤ 10 µM |  |  |
| CN1CCN(C(=O)CN[C@@]2(C)C[C@@H]2c2ccccc2)CC1 [Example C-3, 2-[[(1S,2R)-1-methyl-2-phenyl-cyclopropyl]amino]-1-(4-methylpiperazin-1-yl)ethanone dihydrochloride] |  | < 0.1 µM and 1 to 5 µM |  |
| C[C@]1(NCC(=O)N2CC[C@H](N)C2)C[C@@H]1c1ccccc1 [Example C-5, 1-[(3S)-3-aminopyrrolidin-1-yl]-2-[[(1S,2R)-1-methyl-2-phenyl-cyclopropyl]amino] ethanone hydrochloride] |  | 0.1 to 1 µM |  |
| CN1CCN(C(=O)CN[C@]2(C)C[C@H]2c2ccccc2)CC1 [Example C-25, 2-[[(1R,2S)-1-methyl-2-phenyl-cyclopropyl]amino]-1-(4-methylpiperazin-1-yl)ethanone 2,2,2-trifluoroacetic acid] |  | < 0.1 µM |  |
| CN1CCN(C(=O)CN[C@]2(C)C[C@@H]2c2ccccc2)CC1 [Example C-26, 2-[[(1R,2R)-1-methyl-2-phenyl-cyclopropyl]amino]-1-(4-methylpiperazin-1-yl)ethanone 2,2,2-trifluoroacetic acid] |  | 1 to 5 µM |  |

Continued, in another order:

| IC50 [1] | IC50 [2] | Structure (SMILES) | inhibition at 100 µM ([1]; 100 μM, read-out: inhibition at 100 μM, cell growth inhibitory assay) |
| --- | --- | --- | --- |
| 10 to 50 µM | 0.1 to 1 µM | N[C@]1(Cc2ccccc2)C[C@H]1c1ccc(Br)cc1 (relative stereo) [Example A-13, trans-1-benzyl-2-(4-bromophenyl)cyclopropanamine hydrochloride] |  |
| 10 to 50 µM |  | CC[C@@]1(N)C[C@H]1c1ccc2ncccc2c1 (relative stereo) [Example A-14, trans-1-ethyl-2-(6-quinolyl)cyclopropanamine dihydrochloride] |  |
| 10 to 50 µM | 0.1 to 1 µM | N[C@]1(Cc2ccc3ccccc3c2)C[C@H]1c1ccc(Br)cc1 (relative stereo) [Example A-29, trans-2-(4-bromophenyl)-1-(2-naphthylmethyl)cyclopropanamine hydrochloride] |  |
| 10 to 50 µM |  | CC[C@@]1(N)C[C@H]1c1ccc(NC(=O)c2ccc3ccccc3c2)cc1 (relative stereo) [Example A-30, trans-N-[4-[2-amino-2-ethyl-cyclopropyl]phenyl]naphthalene-2-carboxamide hydrochloride] |  |
| 10 to 50 µM |  | CC[C@]1(N)C[C@@H]1c1ccccc1NC(=O)c1cccc(NC(=O)OCc2ccccc2)c1 (relative stereo) [Example A-32, benzyl N-[3-[[2-[(trans)-2-amino-2-ethyl-cyclopropyl]phenyl]carbamoyl]phenyl]carbamate hydrochloride] |  |
| 10 to 50 µM | 0.1 to 1 µM | CC[C@@]1(N)C[C@H]1c1cccc(NC(=O)c2cccc(NC(=O)OCc3ccccc3)c2)c1 (relative stereo) [Example A-33, benzyl N-[3-[[3-[(trans)-2-amino-2-ethyl-cyclopropyl]phenyl]carbamoyl]phenyl]carbamate hydrochloride] |  |
| 10 to 50 µM | < 0.1 µM | CC[C@@]1(N)C[C@H]1c1ccc(NC(=O)c2cccc(Cl)c2)cc1 (relative stereo) [Example A-34, N-[4-[(trans-2-amino-2-ethyl-cyclopropyl]phenyl]-3-chloro-benzamide hydrochloride] |  |
| 10 to 50 µM | < 0.1 µM | CC[C@@]1(N)C[C@H]1c1ccc(NC(=O)c2cccc(NC(=O)OCc3ccccc3)c2)cc1 (relative stereo) [Example A-37, benzyl N-[3-[[4-[(trans)-2-amino-2-ethyl-cyclopropyl]phenyl]carbamoyl]phenyl]carbamate hydrochloride] |  |
| ≤ 10 µM |  | CC[C@@]1(N)C[C@H]1c1ccc(NC(=O)c2ccc(NC(=O)OCc3ccccc3)cc2)cc1 (relative stereo) [Example A-38, benzyl N-[4-[[4-[(trans)-2-amino-2-ethyl-cyclopropyl]phenyl]carbamoyl]phenyl]carbamate hydrochloride] |  |
| ≤ 10 µM | < 0.1 µM | CC[C@@]1(N)C[C@H]1c1ccc(NC(=O)CCc2ccccc2)cc1 (relative stereo) [Example A-40, N-[4-[(trans)-2-amino-2-ethyl-cyclopropyl]phenyl]-3-phenyl-propanamide hydrochloride] |  |
| 10 to 50 µM | 0.1 to 1 µM | N[C@]1(Cc2ccccc2)C[C@H]1c1ccc(OCc2ccccc2)cc1 (relative stereo) [Example A-43, trans-1-benzyl-2-(4-benzyloxyphenyl) cyclopropanamine hydrochloride] |  |
| ≤ 10 µM | < 0.1 µM | N[C@]1(Cc2ccc3ccccc3c2)C[C@H]1c1ccc(NC(=O)Cc2ccccc2)cc1 (relative stereo) [Example A-46, N-[4-[(trans-2-amino-2-(2-naphthylmethyl)cyclopropyl]phenyl]-2-phenyl-acetamide hydrochloride] |  |
| ≤ 10 µM |  | Nc1ccc([C@@H]2C[C@]2(N)Cc2ccc3ccccc3c2)cc1 (relative stereo) [Example A-119, 4-[trans-2-amino-2-(2-naphthylmethyl)cyclopropyl]aniline 2,2,2-trifluoroacetic acid] |  |
| 50 to 100 µM |  | N[C@@]1(CO)C[C@H]1c1ccccc1 (relative stereo) [Example B-2, [1-Amino-(cis)-2-phenyl-cyclopropyl]methanol] |  |
| 50 to 100 µM |  | CC[C@@]1(NCc2c(OC)ccc3ccccc23)C[C@H]1c1ccccc1 [Example C-2, (1R,2S)-1-ethyl-N-[(2-methoxy-1-naphthyl)methyl]-2-phenyl-cyclopropanamine] |  |
